Experimental data published in US9125855B2, “Prevention of Salmonella recrudescense” (priority 2011, dated 2015).

Key:
[1] = tested on: Salmonella Typhimurium in IPEC-J2 cells; assay: Intracellular survival assay in IPEC-J2 cells; format: cell-based, porcine
Experimental: The polarized intestinal porcine epithelial (IPEC-J2) cell line is derived from jejunal epithelia isolated from a neonatal piglet (Rhoads et al., 1994; Schierack et al., 2006).
(§1) The number of viable bacteria was assessed 24 hours after infection.

[2] = tested on: Salmonella Typhimurium in PAM; assay: Invasion assay in PAM; format: cell-based, porcine; settings: for invasion of Salmonella Typhimurium in PAM: 1 μM
Experimental: (§2) For the invasion assays, PAM and IPEC-J2 cells were seeded in 24-well plates at a density of approximately 5×10^5 cells and 10^5 cells per well, respectively. PAM were allowed to attach for at least 2 hours and IPEC-J2 cells were allowed to grow for at least 24 hours. […] After 24 hours the invasion assay was performed as described by Boyen et al., 2009a. Finally the PAM and IPEC-J2 cells were washed 3 times and lysed for 10 min with 1% (v/v) Triton X-100 or 0.2% (w/v) sodium deocxycholate (Sigma-Aldrich), respectively and 10-fold dilutions were plated on BGA plates.

[3] = tested on: Salmonella Typhimurium in IPEC-J2 cells; assay: Invasion assay in IPEC-J2 cells; format: cell-based, porcine; settings: for invasion of Salmonella Typhimurium in IPEC-J2 cells: 1 μM
Experimental: as §2

[4] = tested on: Salmonella Typhimurium in PAM; assay: Intracellular survival assay in PAM; format: cell-based, porcine; settings: for intracellular proliferation of Salmonella Typhimurium in PAM: 1 μM
Text: Porcine pulmonary alveolar macrophages (PAM) were isolated by broncho-alveolar washes from lungs of euthanized 3 to 4 week old piglets, obtained from a Salmonella-negative farm, as described previously (Dom et al., 1992). The isolated cells were pooled and frozen in liquid nitrogen until further use. Prior to seeding the cells, frozen aliquots of approximately 10^8 cells per ml were thawed and washed 3 times in Hank's buffered salt solution with Ca^2+ and Mg^2+ (HBSS+, Gibco) with 10% (v/v) fetal calf serum (FKS, Hyclone, Cramlington, England) at 4° C. Finally, these cells were cultured in Roswell Park Memorial Institute medium (RPMI, Gibco) containing 10% (v/v) FKS, 1% (v/v) L-glutamine (Gibco), 1% (v/v) sodium pyruvate (Gibco), 1% (v/v) MEM non essential amino acids (NEAA, Gibco) and 1% (v/v) penicillin-streptomycin (Gibco).
as §1
Following the IVET screening, the intracellular survival assay was repeated with Salmonella Typhimurium ΔscsA and ΔcbpA and compared to the WT.

[5] = tested on: PAM; assay: Cytotoxicity assay (LDH); format: cell-based, porcine; settings: 0.001 to 100 μM
Experimental: Therefore PAM were seeded in a 96-well microplate at a density of approximately 2×10^5 cells per well and were allowed to attach for at least 2 hours. The IPEC-J2 cells were seeded and allowed to grow for at least 24 hours in a 96-well microplate at a density of approximately 2×10^4 cells per well in Dulbecco's modified Eagle's is medium (DMEM, Gibco) supplemented with 46.5% (v/v) Ham's F12 medium (Gibco), 5% (v/v) FKS and 1% insulin-transferrin-selenium-A supplement (ITS, Gibco).
The LDH test was used in accordance to the manufacturer's instructions and the absorbance was measured at 492 nm using a microplate ELISA reader (Multiscan M S, Thermo Labsystems, Helsinki, Finland).

[6] = tested on: Salmonella Typhimurium WT; assay: Effect of cortisol on the gene expression of Salmonella Typhimurium (microarray); settings: 1 μM, stationary and logarithmic phase culture
Experimental: Two OD600 nm units of each culture were incubated in one-fifth culture volume 5% (v/v) phenol pH 4.3/95% (v/v) ethanol solution for 30 min on ice to stabilize the RNA. Subsequently, the RNA was extracted using the SV Total RNA purification kit (Promega, Leiden, the Netherlands).
Each condition was tested in triplicate and transcriptomic techniques involved Salmonella Typhimurium microarrays constructed at the Institute of Food Research, Norwich, UK, as described previously (Clements et al., 2002; Yberg et al., 2006). The microarray used in this study was the whole-genome SALSA cDNA microarray covering 5080 genes and data analysis was performed as described by Eriksson-Ygberg et al., 2006.

[7] = tested on: Salmonella Typhimurium WT; assay: Effect of cortisol on the growth of Salmonella Typhimurium; settings: 0.001 to 100 μM, LB broth, 24 hours
Experimental: Therefore, Salmonella Typhimurium was grown in LB broth whether or not supplemented with cortisol. The number of CFU per ml was determined at different time points by titration of 10-fold dilutions of the bacterial suspensions on BGA. After incubation for 24 hours at 37° C., the number of colonies was counted.

[8] = tested on: Salmonella Typhimurium in PAM; settings: 1 μM, 24 hours; cited from earlier work
[9] = tested on: Salmonella Typhimurium infected PAM; assay: iTRAQ comparative proteome study of cortisol treated Salmonella infected PAM; format: cell-based, porcine; settings: 1 μM cortisol
Text: We used a gel-free approach called isobaric tags for relative and absolute quantification (iTRAQ) in which four different isobaric labels are used to tag N-termini and lysine side chains of four different samples with four different isobaric reagents. Upon collision-induced dissociation during MS/MS, the isobaric tags are released, which results in four unique reporter ions that are used to quantify the proteins in the four different samples (Ross et al., 2004).
Sample preparation: PAM were isolated and cultured as described in Verbrugghe et al. (2011), they were seeded in 175 cm^2 cell culture flasks at a density of approximately 5×10^7 cells per flask and were allowed to attach for 2 hours. Subsequently, PAM were washed 3 times with Hank's buffered salt solution with Ca^2+ and Mg^2+ (HBSS+, Gibco) and a gentamicin protection invasion assay was performed as described by Boyen et al. (2009a). Briefly, Salmonella was inoculated into the cell culture flasks at a multiplicity of infection (MOI) of 10:1. To synchronize the infection, the inoculated flasks were centrifuged at 365×g for 10 min and incubated for 30 min at 37° C. under 5% CO2. […] The supernatant was held on ice until further use and the pellet was dissolved and sonicated (6 times 30 sec), using an ultrasonic processor XL 2015 (Misonix, Farmingdale, N.Y., USA), in reagent 3 of the Ready Prep Sequential extraction kit (Bio-Rad, Hercules, Calif., USA). […] Protein concentration was determined using the Bradford Protein Assay (Thermo Fisher Scientific, Rockford, USA) according to the manufacterer's instructions.
Trypsin digest and iTRAQ labeling: Digest and labeling of the samples (100 μg proteins per sample) with iTRAQ reagents was performed according to the manufacturer's guidelines (AB Sciex, Foster City, Calif., USA). Individual samples of cortisol treated or untreated PAM were analyzed in the same run, making paired comparisons possible and minimizing technical variation. […] Each fraction was analyzed by nano LC-MSMS as described by Bijttebier et al. (2009). […]

[10] = tested on: Salmonella Typhimurium in PAM; assay: Contribution of the cytoskeleton to cortisol induced intracellular proliferation in PAM; format: cell-based, porcine; settings: 2 μM cytochalasin D and/or 20 μM nocodazole, 1 μM cortisol, 24 hours
Experimental: Therefore, PAM is were seeded in 24-well plates at a density of approximately 5×10^5 cells per well, allowed to attach for 2 hours and infected with Salmonella, as described in the iTRAQ analysis.

[11] = tested on: pig; settings: 2 mg dexamethasone per kg body weight; cited from earlier work

CNC[C@H](O)c1ccc(O)c(O)c1 [Epinephrine, epinephrine]
intracellular proliferation of Salmonella Typhimurium in IPEC-J2 cells ([1]; 1 μM): did neither affect
invasion of Salmonella Typhimurium in PAM [2]: did neither affect
invasion of Salmonella Typhimurium in IPEC-J2 cells [3]: did neither affect
intracellular proliferation of Salmonella Typhimurium in PAM [4]: did neither affect

C[C@]12CCC(=O)C=C1CC[C@@H]1[C@@H]2[C@@H](O)C[C@@]2(C)[C@H]1CC[C@]2(O)C(=O)CO [cortisol, Cortisol]
intracellular proliferation of Salmonella Typhimurium in IPEC-J2 cells ([1]; 0.001 to 100 μM): did neither affect
invasion in PAM ([2]; 0.001 to 100 μM): did neither affect
effect on cell viability [5]: did not exert a notable effect
gene expression levels by microarray analysis [6]: did not significantly affect
invasion in IPEC-J2 cells ([3]; 0.001 to 100 μM): did neither affect
growth of Salmonella [7]: did not affect
intracellular proliferation of Salmonella Typhimurium in treated PAM in comparison to non-treated cells ([4]; 24 hours): higher
concentration leading to a significant dose-dependent increase of the number of intracellular bacteria ([4]; PAM, 24 hours): 100 nM
number of intracellular Salmonella Typhimurium bacteria compared to untreated PAM [8]: significant increase
number of proteins more abundant in cortisol treated PAM [9]: 21
number of proteins with higher levels in untreated PAM [9]: Two
number of proteins with recurrent expressional differences, treated vs untreated infected PAM [9]: 23

C=C1[C@@H](C)[C@H]2[C@H](Cc3ccccc3)NC(=O)[C@]23[C@H](OC(C)=O)/C=C/[C@@](C)(O)C(=O)[C@@H](C)C/C=C/[C@H]3[C@@H]1O [cytochalasin D]
cortisol induced increased survival of the bacterium in PAM [10]: inhibition

C[C@@H]1C[C@H]2[C@@H]3CCC4=CC(=O)C=C[C@]4(C)[C@@]3(F)[C@@H](O)C[C@]2(C)[C@@]1(O)C(=O)CO [dexamethasone]
effect on cell viability [5]: did not exert a notable effect
immunosuppression of the pig [11]: does not cause immunosuppression

NCCc1ccc(O)c(O)c1 [dopamine]
intracellular proliferation of Salmonella Typhimurium in IPEC-J2 cells ([1]; 1 μM): did neither affect
invasion of Salmonella Typhimurium in PAM [2]: did neither affect
invasion of Salmonella Typhimurium in IPEC-J2 cells [3]: did neither affect
intracellular proliferation of Salmonella Typhimurium in PAM [4]: did neither affect

COC(=O)Nc1nc2ccc(C(=O)c3cccs3)cc2[nH]1 [nocodazole]
cortisol induced increased survival of the bacterium in PAM [10]: inhibition

NC[C@H](O)c1ccc(O)c(O)c1 [norepinephrine]
intracellular proliferation of Salmonella Typhimurium in IPEC-J2 cells ([1]; 1 μM): did neither affect
invasion of Salmonella Typhimurium in PAM [2]: did neither affect
invasion of Salmonella Typhimurium in IPEC-J2 cells [3]: did neither affect
intracellular proliferation of Salmonella Typhimurium in PAM [4]: did neither affect
